Experimental data taken from ChEMBL document CHEMBL3608268, “Re-exploring the N-phenylpicolinamide derivatives to develop mGlu4 ligands with improved affinity and in vitro microsomal stability” (Bioorg Med Chem Lett, 2015).

Experiments:
[1] = target: T1, Metabotropic glutamate receptor 4 (Homo sapiens, UniProt Q14833); experiment: Displacement of [3H]N-(4-chloro-3-methoxyphenyl)picolinamide from human mGlu4 receptor expressed in CHO cell membranes incubated for 30 mins by liquid scintillation counting method
T1 sequence (Q14833 whole entry): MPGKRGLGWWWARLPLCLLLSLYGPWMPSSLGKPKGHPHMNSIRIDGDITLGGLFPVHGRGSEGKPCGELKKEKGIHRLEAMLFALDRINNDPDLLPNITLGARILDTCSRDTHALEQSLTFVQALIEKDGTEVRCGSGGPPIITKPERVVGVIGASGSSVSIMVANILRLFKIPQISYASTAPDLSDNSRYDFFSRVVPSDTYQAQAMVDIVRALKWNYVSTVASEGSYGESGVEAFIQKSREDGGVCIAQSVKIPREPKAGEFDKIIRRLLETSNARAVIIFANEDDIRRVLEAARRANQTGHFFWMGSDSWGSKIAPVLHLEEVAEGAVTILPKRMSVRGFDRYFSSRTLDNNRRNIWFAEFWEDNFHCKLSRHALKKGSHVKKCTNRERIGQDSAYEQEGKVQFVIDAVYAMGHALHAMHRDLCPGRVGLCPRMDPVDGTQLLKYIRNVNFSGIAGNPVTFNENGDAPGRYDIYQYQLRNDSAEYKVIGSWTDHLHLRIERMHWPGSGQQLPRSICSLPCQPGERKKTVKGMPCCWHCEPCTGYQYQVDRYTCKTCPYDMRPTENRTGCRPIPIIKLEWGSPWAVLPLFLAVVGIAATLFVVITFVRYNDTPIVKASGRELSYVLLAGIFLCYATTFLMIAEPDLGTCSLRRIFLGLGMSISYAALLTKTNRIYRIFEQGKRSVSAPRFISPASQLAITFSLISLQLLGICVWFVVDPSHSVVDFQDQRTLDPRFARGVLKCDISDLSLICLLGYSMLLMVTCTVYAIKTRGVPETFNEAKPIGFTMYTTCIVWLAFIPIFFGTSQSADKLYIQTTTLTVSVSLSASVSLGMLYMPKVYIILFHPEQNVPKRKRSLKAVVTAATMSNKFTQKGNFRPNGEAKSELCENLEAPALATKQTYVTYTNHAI

[2] = target: T1, Metabotropic glutamate receptor 4; experiment: Positive allosteric modulator activity at human mGlu4 receptor
[3] = pampa
Description: Effective permeability by PAMPA method

Liver microsome = experiment: Half life in Wistar rat liver microsomes in presence of NADPH generation system by HPLC method; format: ADME
[4] = target: Metabotropic glutamate receptor 4 (Rattus norvegicus, UniProt P31423); experiment: Positive allosteric modulator activity at rat mGlu4 receptor
Chain of Metabotropic glutamate receptor 4 (Rattus norvegicus, UniProt P31423) (P31423 whole entry): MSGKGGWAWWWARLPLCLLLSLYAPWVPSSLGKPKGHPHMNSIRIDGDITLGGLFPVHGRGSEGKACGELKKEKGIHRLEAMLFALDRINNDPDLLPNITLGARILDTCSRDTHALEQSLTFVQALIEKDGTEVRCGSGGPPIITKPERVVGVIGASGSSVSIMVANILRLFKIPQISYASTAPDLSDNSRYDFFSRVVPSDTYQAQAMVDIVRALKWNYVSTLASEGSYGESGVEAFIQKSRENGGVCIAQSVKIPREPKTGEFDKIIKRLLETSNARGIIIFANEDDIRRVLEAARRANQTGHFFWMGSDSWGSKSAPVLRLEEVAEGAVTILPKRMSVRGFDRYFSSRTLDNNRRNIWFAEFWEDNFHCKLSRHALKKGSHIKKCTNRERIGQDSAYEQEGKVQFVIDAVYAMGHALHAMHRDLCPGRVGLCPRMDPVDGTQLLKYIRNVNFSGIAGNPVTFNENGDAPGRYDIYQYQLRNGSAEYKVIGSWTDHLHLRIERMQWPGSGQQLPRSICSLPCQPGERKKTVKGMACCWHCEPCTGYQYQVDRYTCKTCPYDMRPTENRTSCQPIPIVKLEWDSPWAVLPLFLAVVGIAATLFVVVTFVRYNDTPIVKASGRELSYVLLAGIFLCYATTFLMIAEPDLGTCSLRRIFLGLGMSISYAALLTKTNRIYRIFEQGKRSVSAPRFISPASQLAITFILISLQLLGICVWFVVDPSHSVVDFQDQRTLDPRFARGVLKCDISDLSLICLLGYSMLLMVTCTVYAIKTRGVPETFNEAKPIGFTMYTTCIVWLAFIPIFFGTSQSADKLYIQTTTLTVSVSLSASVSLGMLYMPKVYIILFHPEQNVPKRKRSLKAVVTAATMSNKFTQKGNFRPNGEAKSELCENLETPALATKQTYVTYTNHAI

[5] = target: Metabotropic glutamate receptor 2 (Homo sapiens, UniProt Q14416); experiment: Activity at mGlu2 receptor (unknown origin) expressed in HEK293 cells pre-treated for 15 mins before addition of EC80 concentration of reference agonist for another 15 mins by cAMP accumulation assay; format: functional, cell-based
[6] = target: Metabotropic glutamate receptor 8 (Homo sapiens, UniProt O00222); experiment: Activity at mGlu8 receptor (unknown origin) expressed in HEK293 cells pre-treated for 15 mins before addition of EC80 concentration of reference agonist for another 15 mins by cAMP accumulation assay; format: functional, cell-based
Chain of Metabotropic glutamate receptor 8 (O00222 whole entry): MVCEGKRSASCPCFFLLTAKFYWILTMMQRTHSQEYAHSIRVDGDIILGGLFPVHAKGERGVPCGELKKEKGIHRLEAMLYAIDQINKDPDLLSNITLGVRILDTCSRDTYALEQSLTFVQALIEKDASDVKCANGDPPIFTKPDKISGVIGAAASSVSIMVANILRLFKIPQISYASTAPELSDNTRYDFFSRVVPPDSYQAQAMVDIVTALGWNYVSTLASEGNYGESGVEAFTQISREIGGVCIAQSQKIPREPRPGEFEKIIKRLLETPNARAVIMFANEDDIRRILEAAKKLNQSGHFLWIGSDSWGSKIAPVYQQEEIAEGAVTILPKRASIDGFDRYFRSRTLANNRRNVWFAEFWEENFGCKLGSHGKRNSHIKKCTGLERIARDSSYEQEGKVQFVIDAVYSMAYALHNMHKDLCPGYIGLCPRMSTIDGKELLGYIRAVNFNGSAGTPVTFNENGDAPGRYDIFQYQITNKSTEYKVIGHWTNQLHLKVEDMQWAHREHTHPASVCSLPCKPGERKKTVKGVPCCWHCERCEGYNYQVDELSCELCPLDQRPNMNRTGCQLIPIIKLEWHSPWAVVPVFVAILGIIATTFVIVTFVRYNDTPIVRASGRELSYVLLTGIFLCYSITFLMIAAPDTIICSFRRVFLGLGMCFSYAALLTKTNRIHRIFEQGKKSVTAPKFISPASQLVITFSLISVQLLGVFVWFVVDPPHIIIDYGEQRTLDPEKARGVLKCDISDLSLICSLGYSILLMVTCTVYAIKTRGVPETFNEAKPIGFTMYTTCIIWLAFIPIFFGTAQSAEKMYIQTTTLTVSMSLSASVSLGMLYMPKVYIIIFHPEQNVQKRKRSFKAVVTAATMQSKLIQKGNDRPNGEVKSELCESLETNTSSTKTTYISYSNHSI

[7] = target: Metabotropic glutamate receptor 5 (Homo sapiens, UniProt P41594); experiment: Activity at mGlu5 receptor (unknown origin) expressed in HEK293 cells by Ca2+ mobilization assay; format: functional, cell-based
[8] = target: Metabotropic glutamate receptor 6 (Homo sapiens, UniProt O15303); experiment: Activity at mGlu6 receptor (unknown origin) expressed in HEK293 cells pre-treated for 15 mins before addition of EC80 concentration of reference agonist for another 15 mins by cAMP accumulation assay; format: functional, cell-based
Chain of Metabotropic glutamate receptor 6 (O15303 whole entry): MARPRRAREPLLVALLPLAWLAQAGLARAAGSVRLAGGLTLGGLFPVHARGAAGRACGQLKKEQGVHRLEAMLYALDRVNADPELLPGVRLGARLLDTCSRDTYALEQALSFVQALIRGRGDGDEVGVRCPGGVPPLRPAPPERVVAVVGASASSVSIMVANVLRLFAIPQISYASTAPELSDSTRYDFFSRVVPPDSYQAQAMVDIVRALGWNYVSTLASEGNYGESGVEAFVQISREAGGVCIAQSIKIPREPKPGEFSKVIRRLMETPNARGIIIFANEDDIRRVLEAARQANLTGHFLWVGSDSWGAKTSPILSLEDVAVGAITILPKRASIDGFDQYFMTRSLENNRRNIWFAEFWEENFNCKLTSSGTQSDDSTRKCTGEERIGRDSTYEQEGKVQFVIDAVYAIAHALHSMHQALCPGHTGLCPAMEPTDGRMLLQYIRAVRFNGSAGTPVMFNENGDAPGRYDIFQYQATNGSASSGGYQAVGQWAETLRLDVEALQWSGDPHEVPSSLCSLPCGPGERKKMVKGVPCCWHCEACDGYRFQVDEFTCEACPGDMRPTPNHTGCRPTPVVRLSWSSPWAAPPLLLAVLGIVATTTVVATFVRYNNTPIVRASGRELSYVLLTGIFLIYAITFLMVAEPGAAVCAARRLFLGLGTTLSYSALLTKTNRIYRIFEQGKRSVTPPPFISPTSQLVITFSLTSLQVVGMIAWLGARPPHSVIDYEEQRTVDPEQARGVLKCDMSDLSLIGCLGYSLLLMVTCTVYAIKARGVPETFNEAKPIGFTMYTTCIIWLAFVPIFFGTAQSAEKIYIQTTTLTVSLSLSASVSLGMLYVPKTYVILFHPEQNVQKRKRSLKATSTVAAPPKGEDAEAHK

[9] = target: Metabotropic glutamate receptor 1 (Homo sapiens, UniProt Q13255); experiment: Activity at mGlu1 receptor (unknown origin) expressed in HEK293 cells by Ca2+ mobilization assay; format: functional, cell-based
Chain of Metabotropic glutamate receptor 1 (Q13255 whole entry): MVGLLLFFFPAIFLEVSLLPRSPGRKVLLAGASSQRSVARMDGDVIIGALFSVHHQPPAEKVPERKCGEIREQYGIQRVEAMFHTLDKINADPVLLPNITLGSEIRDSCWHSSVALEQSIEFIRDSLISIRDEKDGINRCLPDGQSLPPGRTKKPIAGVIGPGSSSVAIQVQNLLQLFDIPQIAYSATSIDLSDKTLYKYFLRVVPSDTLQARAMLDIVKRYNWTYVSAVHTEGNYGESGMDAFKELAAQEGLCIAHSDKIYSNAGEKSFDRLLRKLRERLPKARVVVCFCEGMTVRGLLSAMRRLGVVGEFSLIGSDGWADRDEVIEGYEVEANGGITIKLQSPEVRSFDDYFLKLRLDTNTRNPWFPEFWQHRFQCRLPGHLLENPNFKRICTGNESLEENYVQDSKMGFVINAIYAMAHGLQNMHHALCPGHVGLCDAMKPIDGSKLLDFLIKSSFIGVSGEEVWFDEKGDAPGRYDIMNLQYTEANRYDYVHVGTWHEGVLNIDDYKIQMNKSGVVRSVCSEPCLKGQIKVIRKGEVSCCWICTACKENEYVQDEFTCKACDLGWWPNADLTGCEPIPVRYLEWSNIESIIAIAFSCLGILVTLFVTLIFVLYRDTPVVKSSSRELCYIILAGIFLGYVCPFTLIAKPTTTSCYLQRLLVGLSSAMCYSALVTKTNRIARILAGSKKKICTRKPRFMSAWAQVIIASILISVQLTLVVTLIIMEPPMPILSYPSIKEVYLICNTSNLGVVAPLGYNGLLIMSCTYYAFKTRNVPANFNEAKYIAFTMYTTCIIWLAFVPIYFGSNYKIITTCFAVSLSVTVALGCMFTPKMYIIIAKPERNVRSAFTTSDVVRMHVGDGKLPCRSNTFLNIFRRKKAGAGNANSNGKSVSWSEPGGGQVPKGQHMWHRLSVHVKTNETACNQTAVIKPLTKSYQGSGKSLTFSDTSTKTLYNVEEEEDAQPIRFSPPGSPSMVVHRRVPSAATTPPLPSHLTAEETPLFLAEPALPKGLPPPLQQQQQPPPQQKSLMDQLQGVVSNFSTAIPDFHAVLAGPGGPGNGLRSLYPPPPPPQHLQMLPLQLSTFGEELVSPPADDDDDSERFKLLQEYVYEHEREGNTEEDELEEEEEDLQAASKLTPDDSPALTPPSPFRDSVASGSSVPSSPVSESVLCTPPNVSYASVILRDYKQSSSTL

CSc1cccc(NC(=O)c2ccccn2)c1
IC50 [1]: 4.9 nM

c1cnc(Nc2nc3c(s2)CCCc2[nH]ncc2-3)nc1
EC50 [2]: 9 nM

COc1cc(NC(=O)c2cccc(F)n2)ccc1Cl
IC50 [1]: 7.3 nM

Cc1ccnc(Nc2nc(-c3cn[nH]c3)c(C)s2)n1
Peff [3]: 257 ×10⁻⁶ cm/s
t1/2 (Liver microsome): 7 min
EC50 [4]: 9 nM

COc1cc(NC(=O)c2ccccn2)ccc1Br
IC50 [1]: 322 nM

COc1cc(NC(=O)c2ccccn2)ccc1I
IC50 [1]: 146 nM

COc1cccc(NC(=O)c2ccccn2)c1
IC50 [1]: 13.7 nM

O=C(Nc1cccc(OC(F)F)c1)c1cccc(F)n1
IC50 [1]: 6.7 nM

COc1cc(NC(=O)c2cccc(F)n2)ccc1F
IC50 [1]: 89.2 nM

N#Cc1cccc(NC(=O)c2ccccn2)c1
IC50 [1]: 10.4 nM

N#Cc1cc(NC(=O)c2ccccn2)ccc1F
IC50 [1]: 7.4 nM

N#Cc1cc(NC(=O)c2ccccn2)ccc1Cl
IC50 [1]: 5.3 nM

N#Cc1cc(NC(=O)c2ccccn2)ccc1Br
IC50 [1]: 47 nM

N#Cc1cc(NC(=O)c2ccccn2)ccc1I
IC50 [1]: 172 nM

O=C(Nc1ccc(Cl)c(OCF)c1)c1ccccn1
Peff [3]: 272 ×10⁻⁶ cm/s
IC50 [1]: 3.2 nM
t1/2 (Liver microsome): 5.8 min

[2H]C([2H])(F)Oc1cc(NC(=O)c2ccccn2)ccc1Cl
IC50 [5]: > 30000 nM
IC50 [6]: > 30000 nM
IC50 [1]: 3.2 nM
IC50 [7]: > 30000 nM
IC50 [8]: > 30000 nM
t1/2 (Liver microsome): 7.4 min
IC50 [9]: > 30000 nM

[2H]C([2H])(F)Oc1cccc(NC(=O)c2ccccn2)c1
IC50 [1]: 3.7 nM

O=C(Nc1cccc(OC(F)F)c1)c1ccccn1
Peff [3]: 214 ×10⁻⁶ cm/s
t1/2 (Liver microsome): 5.2 min

COc1cc(NC(=O)c2ccccn2)ccc1F
IC50 [1]: 31.6 nM

O=C(Nc1cccc(Cl)c1)c1ccccn1
EC50 [2]: 1200 nM
EC50 [4]: 330 nM

COc1cc(NC(=O)c2ccccn2)ccc1Cl
Peff [3]: 256 ×10⁻⁶ cm/s
t1/2 (Liver microsome): 4.9 min
